Consider six compounds from patent US9380783B2, “Herbicidal composition” (priority 2012, dated 2016).

Assay type in all cases: in vivo
For assay [1], the system named is sunn-hemp (Crotalaria juncea L.). The experiment in a line: Test Example 1: soil treatment, sunn-hemp pot test. As to conditions: 28th day after treatment, read-out: Growth inhibition rate of sunn-hemp (%) Measured value. From the text:
On the 28th day after treatment, the state of growth of the sunn-hemp was visually observed to determine the growth inhibition rate (%) in accordance with the following evaluation standard. The growth inhibition rate (%) (measured value) and the growth inhibition rate (%) (calculated value) calculated by the Colby's formula are shown in Table 1.

Assay [2] deals with wild oat (Avena fatua L.). The experiment in a line: Test Example 2: soil treatment, wild oat pot test. As to conditions: 28th day after treatment, read-out: Growth inhibition rate of wild oat (%) Measured value. From the text: (§1) Upland field soil was put into a 1/300,000 ha pot, and seeds of wild oat (Avena fatua L.) were sown. […] On the 28th day after treatment, the state of growth of the wild oat was visually observed to determine the growth inhibition rate (%).

The subject of assay [3] is wild oat (Avena fatua L.). The experiment in a line: Test Example 3: soil treatment, wild oat pot test. As to conditions: 28th day after treatment, read-out: Growth inhibition rate of wild oat (%) Measured value.
Excerpt: as §1

Assay [4] relates to prickly sida (Sida spinosa L.). The experiment in a line: Test Example 4: soil treatment, prickly sida pot test. Particulars: read-out: Growth inhibition rate of prickly sida (%) Measured value. Here is the method:
Upland field soil was put into a 1/300,000 ha pot, and seeds of prickly sida (Sida spinosa L.) were sown. On the next day, predetermined amounts of the above formulations respectively containing nicosulfuron, prosulfuron, dicamba and bicyclopyrone were diluted with water (in an amount corresponding to 1,000 L/ha) and applied for soil treatment by a small sprayer.

Assay [5] deals with black nightshade (Solanum nigrum L.). The experiment in a line: Test Example 5: soil treatment, black nightshade pot test. Particulars: 28th day after treatment, read-out: Growth inhibition rate of black nightshade (%) Measured value. From the text: Upland field soil was put into a 1/300,000 ha pot, and seeds of black nightshade (Solanum nigrum L.) were sown. […] On the 28th day after treatment, the state of growth of the black nightshade was visually observed to determine the growth inhibition rate (%).

For assay [6], the system named is annual ragweed (Ambrosia artemisiifolia L.). The experiment in a line: Test Example 6: soil treatment, annual ragweed pot test. Particulars: 28th day after treatment, read-out: Growth inhibition rate of annual ragweed (%) Measured value. The procedure:
Upland field soil was put into a 1/300,000 ha pot, and seeds of annual ragweed (Ambrosia artemisiifolia L.) were sown. On the next day, predetermined amounts of the above formulations respectively containing nicosulfuron, prosulfuron and bromoxynil-octanoate were diluted with water (in an amount corresponding to 1,000 L/ha) and applied for soil treatment by a small sprayer.

Assay [7] has as its system ivy-leaved morningglory (Ipomoea hederacea (L.) Jacq.). The experiment in a line: Test Example 7: soil treatment, ivy-leaved morningglory pot test. Particulars: read-out: Growth inhibition rate of ivy-leaved morningglory (%) Measured value. The procedure:
Upland field soil was put into a 1/300,000 ha pot, and seeds of ivy-leaved morningglory (Ipomoea hederacea (L.) Jacq.) were sown. On the next day, predetermined amounts of the above formulations respectively containing nicosulfuron, prosulfuron and bicyclopyrone were diluted with water (in an amount corresponding to 1,000 L/ha) and applied for soil treatment by a small sprayer.

Assay [8] deals with korean lespedeza (Kummerowia stipulacea (Maxim.) Makino). The experiment in a line: Test Example 8: soil treatment, korean lespedeza pot test. As to conditions: read-out: Growth inhibition rate of korean lespedeza (%) Measured Value. The procedure:
Upland field soil was put into a 1/300,000 ha pot, and seeds of korean lespedeza (Kummerowia stipulacea (Maxim.) Makino) were sown. On the next day, predetermined amounts of the above formulations respectively containing nicosulfuron, prosulfuron and bicyclopyrone were diluted with water (in an amount corresponding to 1,000 L/ha) and applied for soil treatment by a small sprayer.

Assay [9] deals with annual ragweed (Ambrosia artemisiifolia L.). The experiment in a line: Test Example 9: foliar treatment, annual ragweed pot test. Particulars: foliar treatment at 6.0 to 8.0-leaf stage, 14th day after treatment, read-out: Growth inhibition rate of annual ragweed (%) Measured value. The procedure:
Upland field soil was put into a 1/1,000,000 ha pot, and seeds of annual ragweed (Ambrosia artemisiifolia L.) were sown. When the annual ragweed reached 6.0 to 8.0-leaf stage, predetermined amounts of the above formulations respectively containing nicosulfuron, prosulfuron and mesotrione were diluted with water (in an amount corresponding to 300 L/ha) and applied for foliar treatment by a small sprayer.
On the 14th day after treatment, the state of growth of the annual ragweed was visually observed to determine the growth inhibition rate (%). The growth inhibition rate (%) (measured value) and the growth inhibition rate (%) calculated in the same manner as in the above Test Example 1 are shown in Table 9.

The test system of assay [10] is common lespedeza (Lespedeza striata (Thunb.) Hook. et Arn.). The experiment in a line: Test Example 10: foliar treatment, common lespedeza pot test. As to conditions: Kummerowia striata, foliar treatment at 4.0-leaf stage, 14th day after treatment, read-out: Growth inhibition rate of common lespedeza (%) Measured value. The procedure: Upland field soil was put into a 1/1,000,000 ha pot, and seeds of common lespedeza (Lespedeza striata (Thunb.) Hook. et Arn.) were sown. When the common lespedeza reached 4.0-leaf stage, predetermined amounts of the above formulations respectively containing nicosulfuron, prosulfuron and dicamba were diluted with water (in an amount corresponding to 300 L/ha) and applied for foliar treatment by a small sprayer.

Assay [11] concerns velvetleaf (Abutilon theophrasti Medic.). The experiment in a line: Test Example 11: foliar treatment, velvetleaf pot test. Particulars: read-out: Growth inhibition rate of velvetleaf (%) Measured value. Here is the method: Upland field soil was put into a 1/1,000,000 ha pot, and seeds of velvetleaf (Abutilon theophrasti Medic.) were sown. When the velvetleaf reached 5.0 to 5.3-leaf stage, predetermined amounts of the above formations respectively containing nicosulfuron, prosulfuron, dicamba, bromoxynil-octanoate and bicyclopyrone were diluted with water (in an amount corresponding to 300 L/ha) and applied for foliar treatment by a small sprayer.

The mark [12] stands for this setting: dose 2.5 g/ha, soil treatment, 28th day after treatment.
[13] abbreviates: soil treatment, 28th day after treatment.
Where [14] appears, read: dose 100 g/ha, soil treatment, 28th day after treatment.

Consider `COc1nc(C)nc(NC(=O)NS(=O)(=O)c2ccccc2CCC(F)(F)F)n1` [Prosulfuron, 1-(4-methoxy-6-methyl-1,3,5-triazin-2-yl)-3-[2-(3,3,3-trifluoropropyl)phenylsulfonyl]urea], for which the inhibition at 50 g/ha in assay [1] (dose 50 g/ha) worked out at 60%; in [4] (setting [13]) it was 40%; in assay [5] (dose 50 g/ha), 20%; in assay [7] (dose 50 g/ha, soil treatment, 14th day after treatment) it was 50%. For the same compound, the inhibition at 2.5 g/ha in assay [2] (dose 2.5 g/ha) was 0%; in assay [4] (setting [12]), 20%; in assay [6] (dose 2.5 g/ha) it was 78%; in assay [8] (setting [12]), 50%. The inhibition at 15 g/ha is 0% in [3] (dose 15 g/ha); 20% in assay [4] (dose 15 g/ha, soil treatment, 28th day after treatment); 93% in [6] (dose 15 g/ha); 53% in [9] (dose 15 g/ha); 13% in assay [10] (dose 15 g/ha). The inhibition at 10 g/ha in assay [9] (dose 10 g/ha) is 55%; in [10] (dose 10 g/ha), 10%.

For the compound `CCCCCCCC(=O)Oc1c(Br)cc(C#N)cc1Br` [Bromoxynil-octanoate, bromoxynil-octanoate], the inhibition at 100 g/ha in [5] (dose 100 g/ha) and in assay [6] was 0% in each case. Besides, the inhibition at 500 g/ha in assay [5] (dose 500 g/ha) and in assay [6] (dose 500 g/ha) was 0% in each case. In addition, the inhibition at 200 g/ha turned out to be 0% in [6] (dose 200 g/ha) and 5% in assay [11] (dose 200 g/ha, foliar treatment at 5.0 to 5.3-leaf stage, 20th day after treatment).

As to `COCCOCc1nc(C(F)(F)F)ccc1C(=O)C1=C(O)C2CCC(C2)C1=O` (centres unmarked) [Bicyclopyrone, 4-hydroxy-3-{2-[(2-methoxyethoxy)methyl]-6-(trifluoromethyl)-3-pyridylcarbonyl}bicyclo[3.2.1]oct-3-en-2-one], the inhibition at 25 g/ha in assay [4] (soil) came out at 25%; in [7] (soil), 5%. The inhibition at 400 g/ha in [7] (soil) is 25%; in [8] (soil) it was 78%. Besides, the inhibition at 100 g/ha in assay [11] (foliar) was determined as 40%.

For `COc1cc(OC)nc(NC(=O)NS(=O)(=O)c2ncccc2C(=O)N(C)C)n1` [Nicosulfuron, 2-(4,6-dimethoxypyrimidin-2-ylcarbamoylsulfamoyl)-N,N-dimethylnicotinamide], the inhibition at 10 g/ha in assay [1] (dose 10 g/ha) was found to be 30%; in assay [4] (dose 10 g/ha, soil treatment, 28th day after treatment), 10%; in assay [5] (dose 10 g/ha), 20%; in [7] (dose 10 g/ha, soil treatment, 14th day after treatment) it was 0%. The inhibition at 100 g/ha in [2] (dose 100 g/ha) was found to be 80%; in assay [4] (setting [14]) it was 20%; in assay [6] it was 0%; in [8] (setting [14]), 30%. For the same compound, the inhibition at 30 g/ha in assay [3] (dose 30 g/ha) was found to be 70%; in assay [4] (dose 30 g/ha, soil treatment, 28th day after treatment) it was 10%; in [6] (dose 30 g/ha), 0%; in assay [9] (dose 30 g/ha), 0%; in assay [10] (dose 30 g/ha), 5%.

Consider `CS(=O)(=O)c1ccc(C(=O)C2C(=O)CCCC2=O)c([N+](=O)[O-])c1` [Mesotrione, 2-(4-mesyl-2-nitrobenzoyl)cyclohexane-1,3-dione], for which the inhibition at 150 g/ha worked out at 30% in assay [1] (dose 150 g/ha) and 0% in [2] (dose 150 g/ha). Further, the inhibition at 25 g/ha in assay [2] (dose 25 g/ha) stood at 0%. Also, in [3] (dose 50 g/ha), the inhibition at 50 g/ha turned out to be 0%. For the same compound, in [9] (dose 75 g/ha), the inhibition at 75 g/ha amounted to 25%.

As to `COc1c(Cl)ccc(Cl)c1C(=O)O` [Dicamba, dicamba], the inhibition at 50 g/ha in assay [4] (setting [13]) is 0%. In addition, the inhibition at 150 g/ha in assay [4] (dose 150 g/ha, soil treatment, 28th day after treatment) was determined as 20%; in [10] (dose 150 g/ha), 50%; in assay [11] (dose 150 g/ha, foliar treatment at 5.0 to 5.3-leaf stage, 20th day after treatment) it was 8%. For the same compound, the inhibition at 400 g/ha in assay [4] (dose 400 g/ha, soil treatment, 28th day after treatment) amounted to 40%. Also, in assay [10] (dose 100 g/ha), the inhibition at 100 g/ha came to 23%.
